Measurements as given in the supplement of paper PMC4862054.

Assays:
Assay in all cases: normalised viability (% of control), CellTiter-Blue; higher = more viable cells (about 100 = DMSO control)
[1] = tested on: BT-474; conditions: 100 nM; incubation time: 72 h
Procedure, shortened: (§1)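 Vehicle (100) and a positive kill control (0) anchored the normalisation of each plate, and Z'-factor was used for quality control. Breast cancer cell lines in 20 µl suspension were incubated 72 h over compound in 5 µl medium in 384-well plates, followed by CellTiter-Blue at 560/590 nm. The value is normalised viability at a single listed concentration of the series.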

[2] = tested on: BT-549; conditions: 100 nM; incubation time: 72 h
Procedure, shortened: as §1

[3] = tested on: CAL-120; conditions: 100 nM; incubation time: 72 h
Procedure, shortened: as §1

[4] = tested on: CAL-148; conditions: 10 nM; incubation time: 72 h
Procedure, shortened: as §1

[5] = tested on: CAL-51; conditions: 10 nM; incubation time: 72 h
Procedure, shortened: as §1

[6] = tested on: CAL-85-1; conditions: 10 nM; incubation time: 72 h
Procedure, shortened: as §1

[7] = tested on: DU-4475; conditions: 10 nM; incubation time: 72 h
Procedure, shortened: as §1

[8] = tested on: HCC1599; conditions: 100 nM; incubation time: 72 h
Procedure, shortened: as §1

[9] = tested on: HCC1937; conditions: 100 nM; incubation time: 72 h
Procedure, shortened: as §1

[10] = tested on: HDQ-P1; conditions: 10 nM; incubation time: 72 h
Procedure, shortened: as §1

[11] = tested on: Hs578T; conditions: 100 nM; incubation time: 72 h
Procedure, shortened: as §1

[12] = tested on: MDA-MB-231; conditions: 100 nM; incubation time: 72 h
Procedure, shortened: as §1

[13] = tested on: MDA-MB-436; conditions: 100 nM; incubation time: 72 h
Procedure, shortened: as §1

[14] = tested on: MDA-MB-453; conditions: 10 nM; incubation time: 72 h
Procedure, shortened: as §1

[15] = tested on: MDA-MB-468; conditions: 100 nM; incubation time: 72 h
Procedure, shortened: as §1

[16] = tested on: MFM-223; conditions: 100 nM; incubation time: 72 h
Procedure, shortened: as §1

[17] = tested on: SK-BR-3; conditions: 100 nM; incubation time: 72 h
Procedure, shortened: as §1

[18] = tested on: BT-474; conditions: incubation time: 72 h
Procedure, shortened: as §1

[19] = tested on: CAL-148; conditions: incubation time: 72 h
Procedure, shortened: as §1

[20] = tested on: CAL-51; conditions: incubation time: 72 h
Procedure, shortened: as §1

[21] = tested on: CAL-85-1; conditions: incubation time: 72 h
Procedure, shortened: as §1

[22] = tested on: DU-4475; conditions: incubation time: 72 h
Procedure, shortened: as §1

[23] = tested on: HCC1599; conditions: incubation time: 72 h
Procedure, shortened: as §1

[24] = tested on: Hs578T; conditions: incubation time: 72 h
Procedure, shortened: as §1

[25] = tested on: MDA-MB-231; conditions: incubation time: 72 h
Procedure, shortened: as §1

[26] = tested on: MDA-MB-453; conditions: incubation time: 72 h
Procedure, shortened: as §1

[27] = tested on: MDA-MB-468; conditions: incubation time: 72 h
Procedure, shortened: as §1

[28] = tested on: MFM-223; conditions: incubation time: 72 h
Procedure, shortened: as §1

[29] = tested on: SK-BR-3; conditions: incubation time: 72 h
Procedure, shortened: as §1

CN[C@@H]1C[C@H]2O[C@@](C)([C@@H]1OC)n1c3ccccc3c3c4c(c5c6ccccc6n2c5c31)C(=O)N[C@H]4O [UCN-01]
Conditions	normalised viability [%]
[1]	94.6
[2]	52.3
[3]	30.4
[4]	98.5
[5]	97.5
[6]	86.9
[7]	101
[8]	56.3
[9]	42
[10]	72.9
[11]	14.4
[12]	37
[13]	75.1
[14]	106
[15]	56.2
[16]	66.9
[17]	44.2

normalised viability [%]
Conditions	3 nM	10 nM	30 nM	100 nM	1000 nM	10000 nM
[18]	–	108	–	–	44.2	2.62
[19]	92.2	–	105	106	–	–
[20]	99.7	–	87.2	62.6	–	–
[21]	87.4	–	73.6	60.4	–	–
[22]	109	–	81.5	78.3	–	–
[23]	–	81.1	–	–	48.3	21.2
[24]	–	88.3	–	–	7.74	0.41
[25]	–	93.7	–	–	17.2	0.84
[26]	98	–	86.8	65	–	–
[27]	–	126	–	–	7.27	6.64
[28]	–	103	–	–	42.1	13.5
[29]	–	101	–	–	16.5	3.68

Clc1ccc(Nc2nnc(Cc3ccncc3)c3ccccc23)cc1 [Vatalanib]
Conditions	normalised viability [%]
[1]	100
[2]	81.4
[3]	79.7
[4]	84.4
[5]	101
[6]	97.3
[7]	97.9
[8]	109
[9]	112
[10]	105
[11]	100
[12]	89.1
[13]	119
[14]	111
[15]	100
[16]	97.7
[17]	66.5

normalised viability [%]
Conditions	3 nM	10 nM	30 nM	100 nM	1000 nM	10000 nM
[18]	–	95.8	–	–	96	73.1
[19]	76.1	–	83.6	82.2	–	–
[20]	104	–	98.7	104	–	–
[21]	90	–	87.6	93.4	–	–
[22]	98.2	–	100	99	–	–
[23]	–	116	–	–	115	113
[24]	–	115	–	–	104	84.7
[25]	–	90.1	–	–	90.8	85.1
[26]	107	–	112	112	–	–
[27]	–	98.6	–	–	112	78.2
[28]	–	99.5	–	–	99.8	111
[29]	–	95.2	–	–	101	86.9

CCC1=C[C@@H]2CN(C1)Cc1c([nH]c3ccccc13)[C@@](C(=O)OC)(c1cc3c(cc1OC)N(C)[C@H]1[C@@](O)(C(=O)OC)[C@H](OC(C)=O)[C@]4(CC)C=CCN5CC[C@]31[C@@H]54)C2 [Vinorelbine]
Conditions	normalised viability [%]
[1]	43.6
[2]	23.4
[3]	30.6
[4]	105
[5]	99.9
[6]	91.3
[7]	107
[8]	90.4
[9]	28
[10]	99.6
[11]	28.7
[12]	37.2
[13]	56.8
[14]	61.1
[15]	39.9
[16]	49.1
[17]	15.7

normalised viability [%]
Conditions	3 nM	10 nM	30 nM	100 nM	1000 nM	10000 nM
[18]	–	108	–	–	44.4	58.1
[19]	106	–	91.4	18.7	–	–
[20]	110	–	91.7	58.1	–	–
[21]	94.2	–	60.3	34.5	–	–
[22]	96.7	–	91.3	79.4	–	–
[23]	–	84.2	–	–	44.4	53.5
[24]	–	93.7	–	–	16.1	15.9
[25]	–	109	–	–	16.7	12.7
[26]	110	–	43	25.1	–	–
[27]	–	104	–	–	53.6	33.8
[28]	–	95.5	–	–	44	29.1
[29]	–	99.4	–	–	17.7	18.3

Oc1nc(-c2ccc(C(F)(F)F)cc2)nc2c1CSCC2 [XAV-939]
Conditions	normalised viability [%]
[1]	107
[2]	104
[3]	97.2
[4]	92.6
[5]	98.8
[6]	96.3
[7]	111
[8]	116
[9]	101
[10]	104
[11]	88.3
[12]	89.1
[13]	128
[14]	101
[15]	107
[16]	96.5
[17]	112

normalised viability [%]
Conditions	3 nM	10 nM	30 nM	100 nM	1000 nM	10000 nM
[18]	–	107	–	–	100	103
[19]	89.3	–	90.4	94.3	–	–
[20]	102	–	101	101	–	–
[21]	96	–	92.8	94.7	–	–
[22]	117	–	101	121	–	–
[23]	–	118	–	–	95	115
[24]	–	90.8	–	–	82.3	85.5
[25]	–	89.5	–	–	87.6	71.4
[26]	104	–	94.2	105	–	–
[27]	–	111	–	–	105	98.4
[28]	–	110	–	–	100	86.9
[29]	–	99.5	–	–	104	115
